Reference: patent publication US20240131168A1, “NAPHTHALENE RING-CONTAINING COMPOUND, PHARMACEUTICAL COMPOSITION CONTAINING SAME, AND USE THEREOF” (JIANGSU YAHONG MEDITECH CO., LTD., priority 2021, published 2024)

Biological target: T1, ERα (Homo sapiens, UniProt P03372)
T1 construct: MCF-7 (ATCC; Cat. No.: HTB-22), a Luminal A breast cancer cell; culture medium EMEM; host or cells: MCF-7
T1 sequence (P03372 1-595): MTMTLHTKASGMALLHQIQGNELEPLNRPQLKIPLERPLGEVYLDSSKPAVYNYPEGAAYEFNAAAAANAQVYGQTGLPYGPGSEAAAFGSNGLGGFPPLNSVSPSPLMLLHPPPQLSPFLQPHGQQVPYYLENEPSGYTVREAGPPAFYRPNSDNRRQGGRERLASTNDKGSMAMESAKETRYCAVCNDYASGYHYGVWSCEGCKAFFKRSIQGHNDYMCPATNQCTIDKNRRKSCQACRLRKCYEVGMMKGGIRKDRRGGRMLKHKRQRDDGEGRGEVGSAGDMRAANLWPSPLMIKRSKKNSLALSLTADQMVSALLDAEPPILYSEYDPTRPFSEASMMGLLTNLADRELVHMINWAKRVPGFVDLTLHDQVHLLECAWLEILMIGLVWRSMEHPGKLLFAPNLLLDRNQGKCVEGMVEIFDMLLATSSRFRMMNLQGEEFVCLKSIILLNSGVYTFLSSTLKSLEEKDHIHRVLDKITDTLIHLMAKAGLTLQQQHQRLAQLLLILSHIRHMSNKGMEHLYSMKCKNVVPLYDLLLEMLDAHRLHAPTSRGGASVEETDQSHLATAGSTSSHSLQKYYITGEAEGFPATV
Experiment: iELISA of ER degradation in MCF-7 cells (Effect Example 1)
Format: cell-based
Conditions: MCF-7 iELISA, processing time 4 hours, starting concentration 1 μM; for Dmax: MCF7; for DC50: read-out: DC50 (drug concentration corresponding to 50% protein degradation)
Text: 1. Cell Line • Breast cancer cell line and its culture medium: • MCF-7 (ATCC; Cat. No.: HTB-22), a Luminal A breast cancer cell; culture medium EMEM.
2. Reagents • Culture medium EMEM (Gibco, 1964507) • Fetal bovine serum (Gibco, 10091148) • Penicillin-streptomycin double antibody (Gibco, S110JV) • DPBS (Gibco, 14190-144) • CellTiter-Glo® assay kit (Promega, G7573) • Trypsin (0.25%) (Gibco, 25200-056) • DMSO (Sigma, D2650)
3. Instruments • Biosafety cabinet (AIRTECH, BSC-1300A II) • Automated cell counter (Life Technologies, countess II) • Multifunctional microplate reader (Biotek, H1FM) • Orbital shaker (Hangzhou Allsheng Instruments Co., Ltd., OS-100) • XLFIT 5.3 (Inforstack Shanghai Co., Ltd.)
For this test method, the following experiments were performed in a biosafety cabinet, with the specific steps as follows: • (1) On the first day, cells were inoculated in a 96-well plate, the previous culture medium was poured off, 5 mL of DPBS was added to wash the cells, and then DPBS was pipetted and discarded. 1 mL of trypsin (0.25%) was then added. The plate was digested in a 37° C., 5% CO2 cell incubator for about 2 to 5 minutes and then taken out. A new corresponding culture medium was added, and pipetted up and down to resuspend the cells evenly. The cells were then counted using an automated cell counter. • (2) Each cell was inoculated in columns 1 to 12 of a 96-well plate (Corning, Cat. No.: 356690) at a density of 30,000 cells per well in 100 μL of culture medium. The plate was then placed in a 37° C., 5% CO2 incubator for 24 hours. • (3) On the second day, the compound of the present disclosure was 4-fold serially diluted to 10 dose points starting at 1 μM. 10 μL of the serially diluted compound was pipetted and added to 100 μL of cells in columns 1 to 10, and 10 μL of the corresponding culture medium containing 0.33 v % DMSO was added to both columns 11 and 12. The plate was incubated in a 37° C., 5% CO2 incubator for 4 hours (Note: column 11 was used as a MIN well without compound and primary antibody but with secondary antibody; column 12 was used as a MAX well without compound but with primary antibody and secondary antibody). • (4) The culture medium was then removed. The cells were washed once with 100 µL of DPBS, and fixed with 100 μL of 1 v % formaldehyde (CST; Cat. No.: 12606) fixative at room temperature for 30 minutes. • (5) The fixative was removed. The cells were washed once with 100 μL of DPBS, and permeabilized with 100 μL of 80 v % pre-cooled methanol (Jiazu-chemical; Cat. No.: 67-56-1) at 4° C. for 15 minutes. • (6) Methanol was removed, and the cells were washed once with 100 μL of DPBS. The plate was added with 100 μL of primary antibody (1:5000, a volume ratio of primary antibody to BSA; manufacturer of primary antibody: Invitrogen, Cat. No.: MA5-14501), and incubated at 4° C. overnight. • (7) Primary antibody was removed, and the cells were washed three times with […] of DPBS. The plate was added with 100 μL of secondary antibody (1:2500, a volume ratio of secondary antibody to BSA; manufacturer of secondary antibody: Univ, Cat. No.: abs20002), and incubated at room temperature for 1 hour. • (8) Secondary antibody was removed, and the cells were washed three times with […] of DPBS. The plate was added with 100 μL of tetramethylbenzidine (TMB) (CST; Cat. No.: 7004), and incubated at room temperature for 1 hour. • (9) The plate was added with 100 μL of stop buffer (CST; Cat. No.: 7002), and incubated at room temperature for 10 minutes. The OD450 signal value was detected with a multifunctional microplate reader, and finally, the degradation effect of the compound of the present disclosure on ER was plotted by XLFIT software, and the DC50 value of the compound of the present disclosure (drug concentration corresponding to 50% protein degradation) was calculated; Dmax=[(the highest level of ERα−the lowest level of ERα)/(the highest level of ERα)].

## CS(=O)(=O)c1ccc(-c2ccc3cc(O)ccc3c2Oc2ccc(OCCOCCOCCOCCN3CCN(c4ccc5c(c4)C(=O)N(C4CCC(=O)NC4=O)C5=O)CC3)cc2)cc1 (centres unmarked) [Compound D19]
  Dmax: 47%

## CCN(CCOCCOCCN1CCN(c2ccc3c(c2)C(=O)N(C2CCC(=O)NC2=O)C3=O)CC1)CCOc1ccc(Oc2c(-c3ccc(S(C)(=O)=O)cc3)ccc3cc(O)ccc23)cc1 (centres unmarked) [Compound D28, 2-(2,6-dioxopiperidin-3-yl)-5-(4-(2-(2-(2-(ethyl(2-(4-((6-hydroxy-2-(4-(methylsulfonyl)phenyl)naphthalen-1-yl)oxy)phenoxy)ethyl)amino)ethoxy)ethoxy)ethyl)piperazin-1-yl)isoindoline-1,3-dione]
  Dmax: 34%

## CCN(CCOc1ccc(Oc2c(-c3ccc(S(C)(=O)=O)cc3)ccc3cc(O)ccc23)cc1)C(=O)c1ccc(CCC2CCN(C3CCN(c4ccc5c(c4)C(=O)N(C4CCC(=O)NC4=O)C5=O)CC3)CC2)cc1 (centres unmarked) [Compound D34, 4-(2-(1′-(2-(2,6-dioxopiperidin-3-yl)-1,3-dioxoisoindolin-5-yl)-[1,4′-bipiperidin]-4-yl)ethyl)-N-ethyl-N-(2-(4-((6-hydroxy-2-(4-(methylsulfonyl)phenyl)naphthalen-1-yl)oxy)phenoxy)ethyl)benzamide]
  Dmax: 45%

## CS(=O)(=O)c1ccc(-c2ccc3cc(O)ccc3c2Oc2ccc(OCCOCCOCCN3CCN(c4ccc5c(c4)C(=O)N(C4CCC(=O)NC4=O)C5)CC3)cc2)cc1 (centres unmarked) [Compound D22, 3-(6-(4-(2-(2-(2-(4-((6-hydroxy-2-(4-(methylsulfonyl)phenyl)naphthalen-1-yl)oxy)phenoxy)ethoxy)ethoxy)ethyl)piperazin-1-yl)-1-oxoisoindolin-2-yl)piperidine-2,6-dione]
  Dmax: 54%
  DC50: 4.9 nM

## CS(=O)(=O)c1ccc(-c2ccc3cc(O)ccc3c2Oc2ccc(N3CCN(CCCCCOCC(=O)N4CCN(c5ccc6c(c5)CN(C5CCC(=O)NC5=O)C6=O)CC4)CC3)cc2)cc1 (centres unmarked) [Compound D11, 3-(5-(4-(2-((5-(4-(4-((6-hydroxy-2-(4-(methylsulfonyl)phenyl)naphthalen-1-yl)oxy)phenyl)piperazin-1-yl)pentyl)oxy)acetyl)piperazin-1-yl)-1-oxoisoindolin-2-yl)piperidine-2,6-dione]
  Dmax: 40%

## CS(=O)(=O)c1ccc(-c2ccc3cc(O)ccc3c2Oc2ccc(OCCOCCOCCOCCN3CCN(c4ccc5c(c4)C(=O)N(C4CCC(=O)NC4=O)C5)CC3)cc2)cc1 (centres unmarked) [Compound D21]
  Dmax: 69%
  DC50: 7.5 nM

## CS(=O)(=O)c1ccc(-c2ccc3cc(O)ccc3c2Oc2ccc(OCCCCN3CCN(c4ccc5c(c4)CN(C4CCC(=O)NC4=O)C5=O)CC3)cc2)cc1 (centres unmarked) [Compound D59, 3-(5-(4-(4-(4-((6-hydroxy-2-(4-(methylsulfonyl)phenyl)naphthalen-1-yl)oxy)phenoxy)butyl)piperazin-1-yl)-1-oxoisoindolin-2-yl)piperidine-2,6-dione]
  Dmax: 67%
  DC50: 0.5 nM

## CS(=O)(=O)c1ccc(-c2ccc3cc(O)ccc3c2Oc2ccc(OCCOCCOCCN3CCN(c4ccc5c(c4)CN(C4CCC(=O)NC4=O)C5=O)CC3)cc2)cc1 (centres unmarked) [Compound D30]
  Dmax: 35%

## CS(=O)(=O)c1ccc(-c2ccc3cc(O)ccc3c2Oc2ccc(OCCOCCOCCOCCOc3ccc4c(c3)C(=O)N(C3CCC(=O)NC3=O)C4)cc2)cc1 (centres unmarked) [Compound D35, 3-(6-(2-(2-(2-(2-(4-((6-hydroxy-2-(4-(methylsulfonyl)phenyl)naphthalen-1-yl)oxy)phenoxy)ethoxy)ethoxy)ethoxy)ethoxy)-1-oxoisoindolin-2-yl)piperidine-2,6-dione]
  Dmax: 32%

## C[C@@H]1CN(CCOc2ccc(Oc3c(-c4ccc(S(C)(=O)=O)cc4)ccc4cc(O)ccc34)cc2)[C@@H](C)CN1CCOCC(=O)N1CCN(c2ccc3c(c2)CN(C2CCC(=O)NC2=O)C3=O)CC1 (stereo partly drawn) [Compound D9, 3-(5-(4-(2-(2-((2R,5S)-4-(2-(4-((6-hydroxy-2-(4-(methylsulfonyl)phenyl)naphthalen-1-yl)oxy)phenoxy)ethyl)-2,5-dimethylpiperazin-1-yl)ethoxy)acetyl)piperazin-1-yl)-1-oxoisoindolin-2-yl)piperidine-2,6-dione]
  Dmax: 48%

## CCN(CCCCCN(C)CC(=O)N1CCN(c2ccc3c(c2)C(=O)N(C2CCC(=O)NC2=O)C3=O)CC1)CCOc1ccc(Oc2c(-c3ccc(S(C)(=O)=O)cc3)ccc3cc(O)ccc23)cc1 (centres unmarked) [Compound D31, 2-(2,6-dioxopiperidin-3-yl)-5-(4-(N-(5-(ethyl(2-(4-((6-hydroxy-2-(4-(methylsulfonyl))phenyl)naphthalen-1-yl)oxy)phenoxy)ethyl)aminopentyl)-N-methylglycyl)piperazin-1-yl)isoindoline-1,3-dione]
  Dmax: 35%

## C[C@@H]1CN(CCOCC(=O)N2CCN(c3ccc4c(c3)C(=O)N(C3CCC(=O)NC3=O)C4=O)CC2)[C@@H](C)CN1CCOc1ccc(Oc2c(-c3ccc(S(C)(=O)=O)cc3)ccc3cc(O)ccc23)cc1 (stereo partly drawn) [Compound D15, 2-(2,6-dioxopiperidin-3-yl)-5-(4-(2-(2-((2S,5R)-4-(2-(4-((6-hydroxy-2-(4-(methylsulfonyl)phenyl)naphthalen-1-yl)oxy)phenoxy)ethyl)-2,5-dimethylpiperazin-1-yl)ethoxy)acetyl)piperazin-1-yl)isoindoline-1,3-dione]
  Dmax: 60%
  DC50: 7.6 nM

## CCN(CCOc1ccc(Oc2c(-c3ccc(S(C)(=O)=O)cc3)ccc3cc(O)ccc23)cc1)CC(=O)N1CCN(c2ccc3c(c2)C(=O)N(C2CCC(=O)NC2=O)C3=O)CC1 (centres unmarked) [Compound D8, 2-(2,6-dioxopiperidin-3-yl)-5-(4-(N-ethyl-N-(2-(4-((6-hydroxy-2-(4-(methylsulfonyl)phenyl)naphthalen-1-yl)oxy)phenoxy)ethyl)glycyl)piperazin-1-yl)isoindoline-1,3-dione]
  Dmax: 43%
